Tested on: Tetranychus Urticae (Two-Spotted Spider Mite)
Test: Tetranychus urticae (two-spotted spider mite): feeding/contact activity
Assay type: in vivo
Conditions: foliar, 192 h, application rate of 200 ppm, bean leaf discs sprayed, mixed population (mobile stages), 8 days after infestation
Protocol: Example B1: Tetranychus Urticae (Two-Spotted Spider Mite): Feeding/Contact Activity
Bean leaf discs on agar in 24-well microtiter plates were sprayed with aqueous test solutions prepared from 10'000 ppm DMSO stock solutions. After drying the leaf discs were infested with a mite population of mixed ages. The samples were assessed for mortality on mixed population (mobile stages) 8 days after infestation.

Row | Compound | mortality at 200 ppm [%]
1 | CNS(=O)(=O)C1CCN(C(=O)c2cc(C#N)c(OCc3cc(C(F)(F)F)ccc3F)nc2C(F)(F)F)CC1 [Compound P1.1, 1-[5-cyano-6-[[2-fluoro-5-(trifluoromethyl)phenyl]methoxy]-2-(trifluoromethyl)pyridine-3-carbonyl]-N-methyl-piperidine-4-sulfonamide] | ≥ 80
2 | CN(C)S(=O)(=O)C1CCN(C(=O)c2cc(C#N)c(OCc3ccc4c(c3)OC(F)(F)O4)nc2C(F)(F)F)CC1 [Compound P1.24, 1-[5-Cyano-6-[(2,2-difluoro-1,3-benzodioxol-5-yl)methoxy]-2-(trifluoromethyl)pyridine-3-carbonyl]-N,N-dimethyl-piperidine-4-sulfonamide] | ≥ 80
3 | CN(C)C(=O)CC1CCN(C(=O)c2cc(C#N)c(OCc3cc(C(F)(F)F)ccc3F)nc2C(F)(F)F)CC1 [Compound P1.37, 2-[1-[5-Cyano-6-[[2-fluoro-5-(trifluoromethyl)phenyl]methoxy]-2-(trifluoromethyl)pyridine-3-carbonyl]-4-piperidyl]-N,N-dimethyl-acetamide] | ≥ 80
4 | CN(C)C(=O)CN1CCN(C(=O)c2cc(C#N)c(OCc3cc(C(F)(F)F)ccc3F)nc2C(F)(F)F)CC1 [Compound P2.6, 2-[4-[5-Cyano-6-[[2-fluoro-5-(trifluoromethyl)phenyl]methoxy]-2-(trifluoromethyl)pyridine-3-carbonyl]piperazin-1-yl]-N,N-dimethyl-acetamide] | ≥ 80

— patent US20240383873A1, “PESTICIDALLY ACTIVE CYCLIC AMINE COMPOUNDS” (SYNGENTA CROP PROTECTION AG, priority 2021, published 2024)
